# Measured values taken from patent publication US8338418B2, “Dual-acting antihypertensive agents” (Theravance, Inc., priority 2008, dated 2012).
# What was measured:
# NEP enzyme = molecular target: T1, NEP enzyme (Homo sapiens, UniProt P08473); experiment: In vitro NEP enzyme inhibition assay; type: biochemical; details: fluorogenic peptide substrate; read-out: pIC50 for the NEP enzyme (converted)
# T1 construct: purchased R&D Systems, Minneapolis, Minn; 1182-ZN
# Description: The inhibitory activities of compounds at human and rat NEP and human ACE were determined using in vitro assays as described below.
# Rat NEP was prepared from the kidneys of adult Sprague Dawley rats. Whole kidneys were washed in cold PBS and brought up in ice-cold lysis buffer (1% Triton X-114, 150 mM NaCl, 50 mM Tris pH 7.5; Bordier (1981) J. Biol. Chem. 256:1604-1607) in a ratio of 5 mL of buffer for every gram of kidney. Samples were homogenized using a polytron hand held tissue grinder on ice. Homogenates were centrifuged at 1000×g in a swinging bucket rotor for 5 minutes at 3° C. The pellet was resuspended in 20 mL of ice cold lysis buffer and incubated on ice for 30 minutes. […] Protein concentrations were quantitated using a BCA detection system with BSA as a standard. […]
# The assays were performed in 384-well white opaque plates at room temperature using the respective fluorogenic peptides at a concentration of 10 μM in Assay Buffer (50 mM Tris/HCl at 25° C., 100 mM NaCl, 0.01% Tween-20, 1 μM Zn, 0.025% BSA). […] The rat NEP enzyme preparation was used at a concentration that yielded quantitative proteolysis of 3 μM of Mca-RRL within 20 minutes at room temperature. […]
# Plates were read on a fluorometer with excitation and emission wavelengths set to 320 nm and 405 nm, respectively. […]
# human AT1 receptor = molecular target: T2, human AT1 receptor (Homo sapiens, UniProt P30556); experiment: AT1 radioligand binding assay; details: [Eu]AngII displacement, CHO-K1 membranes expressing human AT1; read-out: pKi at the AT1 receptor (converted)
# T2 construct: expressed in transfected cells; membrane preparation
# T2 sequence (P30556 1-359): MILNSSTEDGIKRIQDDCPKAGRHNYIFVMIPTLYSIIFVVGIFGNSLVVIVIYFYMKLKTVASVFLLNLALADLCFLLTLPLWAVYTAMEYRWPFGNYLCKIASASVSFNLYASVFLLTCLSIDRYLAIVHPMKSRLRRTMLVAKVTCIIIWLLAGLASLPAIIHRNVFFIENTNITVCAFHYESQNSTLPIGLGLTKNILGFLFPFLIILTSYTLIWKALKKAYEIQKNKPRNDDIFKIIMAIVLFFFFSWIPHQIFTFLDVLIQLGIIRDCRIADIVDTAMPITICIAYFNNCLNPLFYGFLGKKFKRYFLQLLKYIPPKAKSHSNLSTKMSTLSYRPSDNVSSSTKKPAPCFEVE
# Description: These in vitro assays were used to assess the ability of test compounds to bind to the AT1 and the AT2 receptors.
# Membrane Preparation from Cells Expressing Human AT1 or AT2 Receptors
# Chinese hamster ovary (CHO-K1) derived cell lines stably expressing the cloned human AT1 or AT2 receptors, respectively, were grown in HAM's-F12 medium supplemented with 10% fetal bovine serum, 10 μg/ml penicillin/streptomycin, and 500 μg/ml geneticin in a 5% CO2 humidified incubator at 37° C. AT2 receptor expressing cells were grown in the additional presence of 100 nM PD123,319 (AT2 antagonist). When cultures reached 80-95% confluence, the cells were washed thoroughly in PBS and lifted with 5 mM EDTA. Cells were pelleted by centrifugation and snap frozen in MeOH-dry ice and stored at −80° C. until further use.
# For membrane preparation, cell pellets were resuspended in lysis buffer (25 mM Tris/HCl pH 7.5 at 4° C., 1 mM EDTA, and one tablet of Complete Protease Inhibitor Cocktail Tablets with 2 mM EDTA per 50 mL buffer (Roche cat. #1697498, Roche Molecular Biochemicals, Indianapolis, Ind.)) and homogenized using a tight-fitting Dounce glass homogenizer (10 strokes) on ice. The homogenate was centrifuged at 1000×g, the supernatant was collected and centrifuged at 20,000×g. […] Protein concentration of the membrane suspension was determined by the method described in Bradford (1976) Anal Biochem. 72:248-54. […]
# T1 sequence (P08473 52-750 limits assumed): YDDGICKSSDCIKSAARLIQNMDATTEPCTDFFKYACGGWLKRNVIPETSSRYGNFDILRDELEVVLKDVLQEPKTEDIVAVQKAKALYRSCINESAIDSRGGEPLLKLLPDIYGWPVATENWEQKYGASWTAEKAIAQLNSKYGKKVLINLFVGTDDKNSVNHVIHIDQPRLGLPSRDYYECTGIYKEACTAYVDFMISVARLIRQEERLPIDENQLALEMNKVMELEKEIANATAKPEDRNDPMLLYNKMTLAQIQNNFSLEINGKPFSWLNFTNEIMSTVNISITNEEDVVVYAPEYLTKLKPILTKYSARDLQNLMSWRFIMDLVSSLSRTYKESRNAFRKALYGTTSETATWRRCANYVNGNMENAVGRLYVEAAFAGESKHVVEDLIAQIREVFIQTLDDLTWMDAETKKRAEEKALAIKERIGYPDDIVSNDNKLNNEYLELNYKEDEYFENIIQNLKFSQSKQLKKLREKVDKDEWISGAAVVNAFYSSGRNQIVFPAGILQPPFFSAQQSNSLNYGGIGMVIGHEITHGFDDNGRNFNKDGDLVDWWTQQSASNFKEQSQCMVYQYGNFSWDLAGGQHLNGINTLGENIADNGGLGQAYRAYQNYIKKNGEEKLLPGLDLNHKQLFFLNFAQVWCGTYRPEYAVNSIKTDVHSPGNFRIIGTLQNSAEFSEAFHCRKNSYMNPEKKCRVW
compound,measurement,setting,value
"CCCCc1nc(C(=O)N[C@@H](CC(=O)NO)Cc2ccccc2)cn1Cc1ccc(C(=O)O)cc1 [Example 1, 4-[4-((R)-1-benzyl-2-hydroxycarbamoylethylcarbamoyl)-2-butyl-imidazol-1-ylmethyl]benzoic Acid]",IC50,NEP enzyme,≤ 0.1 µM
same,Ki,human AT1 receptor,< 10 µM
